Non-standard residues stand in square brackets, D forms with d. Residues, ends and D or L forms follow the SMILES beside them. *: point of attachment. 1Nal = N[C@@H](Cc1cccc2ccccc12)C(=O)O; 2Nal = N[C@@H](Cc1ccc2ccccc2c1)C(=O)O; Cbz = O=C(OCc1ccccc1)*; CF3 = FC(F)(F)*; CH2Cl = ClC*
What was measured:
Proteasome = experiment: Inhibitory activity against 20S Proteasome; type: subcellular, Oryctolagus cuniculus
Cathepsin B = Cathepsin B (Homo sapiens, UniProt P07858); experiment: Inhibitory activity against Cathepsin B
Prothrombin = Prothrombin (Homo sapiens, UniProt P00734); experiment: Inhibitory activity against thrombin
Cathepsin G = molecular target: T1, Cathepsin G (Homo sapiens, UniProt P08311); experiment: Inhibitory activity against human cathepsin G
T1 sequence (P08311 whole entry): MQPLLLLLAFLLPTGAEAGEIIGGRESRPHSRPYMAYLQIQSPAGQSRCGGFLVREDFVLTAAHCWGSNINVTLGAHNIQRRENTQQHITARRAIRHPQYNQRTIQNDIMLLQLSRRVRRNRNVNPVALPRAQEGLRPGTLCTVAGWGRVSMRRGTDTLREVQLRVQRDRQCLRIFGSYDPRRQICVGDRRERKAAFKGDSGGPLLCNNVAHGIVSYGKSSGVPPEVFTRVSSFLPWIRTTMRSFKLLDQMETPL

Chymotrypsinogen B = Chymotrypsinogen B (Homo sapiens, UniProt P17538); experiment: Inhibitory activity against human Chymotrypsinogen
Neutrophil elastase = molecular target: T2, Neutrophil elastase (Homo sapiens, UniProt P08246); experiment: Inhibitory activity against human leukocyte elastase
T2 sequence (P08246 whole entry): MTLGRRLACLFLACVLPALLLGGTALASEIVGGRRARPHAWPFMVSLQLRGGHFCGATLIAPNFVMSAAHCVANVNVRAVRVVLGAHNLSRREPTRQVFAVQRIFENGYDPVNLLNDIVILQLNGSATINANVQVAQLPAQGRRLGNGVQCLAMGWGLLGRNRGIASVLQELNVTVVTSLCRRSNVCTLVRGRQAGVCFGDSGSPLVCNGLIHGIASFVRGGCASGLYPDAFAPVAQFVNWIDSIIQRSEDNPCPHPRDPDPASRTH

Chymotrypsinogen B, sequence (P17538 34-164 limits assumed, other chains not shown): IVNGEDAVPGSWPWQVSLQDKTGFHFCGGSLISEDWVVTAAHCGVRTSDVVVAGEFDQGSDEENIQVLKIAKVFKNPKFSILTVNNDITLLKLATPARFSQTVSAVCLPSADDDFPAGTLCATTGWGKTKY
Chymotrypsinogen B, sequence (P17538 167-263 limits assumed, other chains not shown): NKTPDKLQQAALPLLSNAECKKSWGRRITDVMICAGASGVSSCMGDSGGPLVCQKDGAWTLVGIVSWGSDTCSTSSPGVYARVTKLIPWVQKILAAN

Ki (Proteasome) [nM] | SMILES | further results
45 | CCOC(=O)C(=O)C(=O)[C@H](CC(C)C)NC(=O)[C@H](CC(C)C)NC(=O)[C@H](CC(C)C)NC(=O)OCc1ccccc1 | –
– | CC(C)C[C@H](NC(=O)[C@H](CC(C)C)NC(=O)[C@H](CC(C)C)NC(=O)OCc1ccccc1)B(O)O | Ki (Cathepsin B): 6.1 nM
1600 | CC(C)C[C@@H](C=O)NC(=O)[C@H](Cc1ccccc1)NC(=O)c1cnccn1 | –
0.18 | CC(C)C[C@H](NC(=O)[C@H](Cc1cccc2ccccc12)NC(=O)c1cnccn1)B(O)O | –
130 | CC[C@@H](C)[C@@H](C=O)NC(=O)[C@H](CC(C)C)NC(=O)[C@H](CC(C)C)NC(=O)OCc1ccccc1 | –
214 | CC(C)C[C@H](NC(=O)OCc1ccccc1)C(=O)N[C@@H](CC(C)C)C(=O)N[C@@H](CC(C)C)C(=O)c1nc2ccccc2o1 | –
97 | CC(C)C[C@@H](C=O)NC(=O)[C@H](Cc1cccc2ccccc12)NC(=O)c1cnccn1 | –
210 | CC(C)C[C@H](NC(=O)OCc1ccccc1)C(=O)N[C@@H](CC(C)C)C(=O)N[C@@H](C)C=O (Cbz-Leu-Leu-Ala-aldehyde) | –
3800 | CC(C)C[C@H](NC(=O)OCc1ccccc1)C(=O)N[C@@H](CC(C)C)C(=O)NCC=O (Cbz-Leu-Leu-Gly-aldehyde) | –
1400 | CC(C)C[C@H](NC(=O)OCc1ccccc1)C(=O)N[C@@H](CC(C)C)C(=O)N[C@@H](CC(C)C)C(=O)C(F)(F)F (Cbz-Leu-Leu-Leu-CF3) | –
22000 | CC(C)C[C@H](NC(=O)[C@H](CC(C)C)NC(=O)[C@H](CC(C)C)NC(=O)OCc1ccccc1)C(=O)CCl (Cbz-Leu-Leu-Leu-CH2Cl) | –
25 | CC(C)C[C@H](NC(=O)OCc1ccccc1)C(=O)N[C@@H](CC(C)C)C(=O)N[C@H](C=O)Cc1ccc2ccccc2c1 (Cbz-Leu-Leu-[2Nal]-aldehyde) | –
0.24 | CC(C)C[C@@H](C=O)NC(=O)[C@H](CC(C)C)NC(=O)[C@H](Cc1ccc2ccccc2c1)NC(=O)OCc1ccccc1 (Cbz-[2Nal]-Leu-Leu-aldehyde) | –
0.015 | CC(C)C[C@@H](C=O)NC(=O)[C@H](Cc1cccc2ccccc12)NC(=O)[C@H](Cc1ccc2ccccc2c1)NC(=O)OCc1ccccc1 (Cbz-[2Nal]-[1Nal]-Leu-aldehyde) | –
– | CC(C)C[C@H](NC(=O)[C@H](Cc1ccccc1)NC(=O)c1cnccn1)B(O)O [BORTEZOMIB] | Ki (Prothrombin): 13000 nM; Ki (Cathepsin G): 630 nM; Ki (Chymotrypsinogen B): 320 nM; Ki (Neutrophil elastase): 2300 nM
4 | CC(C)C[C@@H](C=O)NC(=O)[C@H](CC(C)C)NC(=O)[C@H](CC(C)C)NC(=O)OCc1ccccc1 [MG-132] (Cbz-Leu-Leu-Leu-aldehyde) | –
